From US7125844B2, “Dab9 derivatives of lipopeptide antibiotics and methods of making and using the same” (priority 2002, dated 2006)

System: methicillin sensitive Staphylococcus aureus (MSSA; Smith strain)
Assay: Mouse protection model: mice infected intraperitoneally with MSSA, dosed subcutaneously
Type: in vivo
Details: for Number Dead: 10 mice
Method: An overnight culture of methicillin sensitive Staphylococcus aureus (“MSSA”; Smith strain) grown to stationary phase in brain heart infusion broth (BHI) was diluted 1000-fold and maintained at 37° C. in a shaking incubator. Approximately two hours later the culture was centrifuged and the pellet was washed with sterile phosphate-buffered saline (“PBS”). The washed pellet was then reconstituted in Mueller-Hinton Broth (“MHB”) to achieve the desired density of bacteria. A portion of the inoculum was plated on blood agar plates to determine colony-forming units (CFU) per milliliter.
Compound IB-1272 was formulated immediately before dosing in aqueous vehicle containing 5% dextrose. Compound IB-756 (Aspartocin) was formulated in PBS or 5% dextrose and used as a positive control.
Immunocompetent Swiss Webster Mice from Simonsen Laboratories, Gilroy, Calif., received via intraperitoneal injection a single inoculum (0.5 ml) containing an estimated 4.0×10^7 CFU of MSSA Smith strain. The day of inoculation was designated study day 0. Immediately after infection, mice were treated subcutaneously with a single dose of vehicle alone, IB-1272 (2, 4, or 8 mg/kg), IB-756 (2.5 or 5 mg/kg in PBS), or IB-756 (2.5 or 5 mg/kg in 5% dextrose).

[1] = 2.0 mg/kg s.c. single dose (5% dextrose vehicle)
[2] = 4 mg/kg s.c. single dose (5% dextrose vehicle)
[3] = 8 mg/kg s.c. single dose (5% dextrose vehicle)
[4] = Table 1, no unit or model given

## CC(C)CCCCCCCC/C=C\CC(=O)N[C@@H](CC(=O)O)C(=O)N[C@@H]1C(=O)N2CCCC[C@@H]2C(=O)N[C@@H]([C@H](C)C(=O)O)C(=O)N[C@@H](CC(=O)O)C(=O)NCC(=O)N[C@@H](CC(=O)O)C(=O)NCC(=O)N[C@H]([C@@H](C)NC(=O)CN)C(=O)N[C@@H](C(C)C)C(=O)N2CCC[C@H]2C(=O)N[C@@H]1C [IB-1272, NatC15-aspartocin(Dab^9-N-glycyl)]
[1]
  Percent Mortality: 50%
  Percent Survival: 50%
  Number Dead: 5
[2]
  Percent Mortality: 0%
  Percent Survival: 100%
  Number Dead: 0
[3]
  Percent Mortality: 0%
  Percent Survival: 100%
  Number Dead: 0
[4]
  ED50: 1.8 mg/kg
Subcutaneously administered, immunocompetent mice challenged intraperitoneally with MSSA Smith strain
  ED50: < 2.0 mg/kg

## CC(C)CCCCCCCC/C=C\CC(=O)N[C@@H](CC(=O)O)C(=O)N[C@@H]1C(=O)N2CCCC[C@@H]2C(=O)N[C@@H]([C@H](C)C(=O)O)C(=O)N[C@@H](CC(=O)O)C(=O)NCC(=O)N[C@@H](CC(=O)O)C(=O)NCC(=O)N[C@H]([C@@H](C)NC(=O)[C@H](C)N)C(=O)N[C@@H](C(C)C)C(=O)N2CCC[C@H]2C(=O)N[C@@H]1C [IB-1275, NatC15-aspartocin(Dab^9-N-L-alanyl)]
[4]
  ED50: 15.7 mg/kg

## CC(C)CCCCCCCC/C=C\CC(=O)N[C@@H](CC(=O)O)C(=O)N[C@@H]1C(=O)N2CCCC[C@@H]2C(=O)N[C@@H]([C@H](C)C(=O)O)C(=O)N[C@@H](CC(=O)O)C(=O)NCC(=O)N[C@@H](CC(=O)O)C(=O)NCC(=O)N[C@H]([C@@H](C)NC(=O)[C@@H](C)N)C(=O)N[C@@H](C(C)C)C(=O)N2CCC[C@H]2C(=O)N[C@@H]1C [IB-1279, NatC15-aspartocin(Dab^9-N-D-alanyl)]
[4]
  ED50: 6 mg/kg

## CC(C)CCCCCCCC/C=C\CC(=O)N[C@@H](CC(=O)O)C(=O)N[C@@H]1C(=O)N2CCCC[C@@H]2C(=O)N[C@@H]([C@H](C)C(=O)O)C(=O)N[C@@H](CC(=O)O)C(=O)NCC(=O)N[C@@H](CC(=O)O)C(=O)NCC(=O)N[C@H]([C@@H](C)NC(=O)[C@@H](N)CO)C(=O)N[C@@H](C(C)C)C(=O)N2CCC[C@H]2C(=O)N[C@@H]1C [IB-1281, NatC15-aspartocin(Dab^9-N-L-seryl)]
[4]
  ED50: 14.7 mg/kg
